Measurements taken from EP0942911B1, “BENZOPYRANOPYRROLE AND BENZOPYRANOPYRIDINE ALPHA-1 ADRENERGIC COMPOUNDS” (Abbott Laboratories, priority 1996, dated 1998).
Structures can show the parent of a compound that is named as a salt. Where two headings read alike, the source gives them in different places. Values belong to the compound of their own block, whether it stands above or below them.

Assays:
Experiment in all cases: biochemical
[1] = target: T1, α-1d adrenoreceptor (Rattus norvegicus, UniProt P23944); type: binding; details: read-out: Radioligand Binding (Ki, nM) 1d (Rat)
T1 sequence (P23944 1-561): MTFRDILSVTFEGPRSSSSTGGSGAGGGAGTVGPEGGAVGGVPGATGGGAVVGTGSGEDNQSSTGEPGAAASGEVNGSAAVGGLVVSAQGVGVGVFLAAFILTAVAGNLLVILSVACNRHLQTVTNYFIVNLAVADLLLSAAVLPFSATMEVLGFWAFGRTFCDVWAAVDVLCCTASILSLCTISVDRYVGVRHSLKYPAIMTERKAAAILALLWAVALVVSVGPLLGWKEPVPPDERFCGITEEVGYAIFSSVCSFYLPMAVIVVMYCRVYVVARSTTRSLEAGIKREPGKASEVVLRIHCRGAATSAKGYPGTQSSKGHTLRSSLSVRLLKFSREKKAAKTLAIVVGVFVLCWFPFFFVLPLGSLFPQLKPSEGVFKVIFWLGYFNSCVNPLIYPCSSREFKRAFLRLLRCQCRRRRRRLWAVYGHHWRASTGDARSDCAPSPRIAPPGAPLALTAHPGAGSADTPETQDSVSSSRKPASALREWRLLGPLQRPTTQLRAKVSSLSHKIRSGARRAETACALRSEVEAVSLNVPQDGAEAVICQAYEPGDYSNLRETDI
How it was run: (§1)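 Cloned α-1a (bovine), α-1b (hamster) and α-1d (rat) adrenoreceptors were stably expressed in mouse LTK fibroblasts; membranes from roller-bottle cultures were used. Native α-1A sites came from rat submaxillary gland. Radioligand binding followed Greengrass and Bremner, with liquid scintillation read-out.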

[2] = target: T2, α-1A adrenoreceptor (rat submaxillary gland) (Rattus norvegicus, UniProt P43140); type: binding; details: read-out: Radioligand Binding (Ki, nM) 1A (Rat)
T2 sequence (P43140 1-466): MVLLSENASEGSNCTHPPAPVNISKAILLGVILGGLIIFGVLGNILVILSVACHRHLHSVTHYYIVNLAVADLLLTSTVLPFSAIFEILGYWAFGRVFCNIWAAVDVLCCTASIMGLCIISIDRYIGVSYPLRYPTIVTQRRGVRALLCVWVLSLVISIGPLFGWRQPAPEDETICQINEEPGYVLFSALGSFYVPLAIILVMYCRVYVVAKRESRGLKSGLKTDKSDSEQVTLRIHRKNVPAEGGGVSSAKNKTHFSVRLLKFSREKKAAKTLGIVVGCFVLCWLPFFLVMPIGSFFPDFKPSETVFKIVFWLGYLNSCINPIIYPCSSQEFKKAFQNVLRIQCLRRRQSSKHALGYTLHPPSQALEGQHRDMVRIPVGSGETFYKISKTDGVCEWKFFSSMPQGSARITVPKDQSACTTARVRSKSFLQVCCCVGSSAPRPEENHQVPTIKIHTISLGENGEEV
How it was run: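 Radioligand binding to α-1A sites in membrane homogenates of rat submaxillary gland, run after Greengrass and Bremner. Bound radioactivity counted by liquid scintillation.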

[3] = target: T3, α-1a adrenoreceptor (Bos taurus, UniProt P18130); type: binding, bovine; details: read-out: Radioligand Binding (Ki, nM) 1a (Bovine)
T3 sequence (P18130 1-466): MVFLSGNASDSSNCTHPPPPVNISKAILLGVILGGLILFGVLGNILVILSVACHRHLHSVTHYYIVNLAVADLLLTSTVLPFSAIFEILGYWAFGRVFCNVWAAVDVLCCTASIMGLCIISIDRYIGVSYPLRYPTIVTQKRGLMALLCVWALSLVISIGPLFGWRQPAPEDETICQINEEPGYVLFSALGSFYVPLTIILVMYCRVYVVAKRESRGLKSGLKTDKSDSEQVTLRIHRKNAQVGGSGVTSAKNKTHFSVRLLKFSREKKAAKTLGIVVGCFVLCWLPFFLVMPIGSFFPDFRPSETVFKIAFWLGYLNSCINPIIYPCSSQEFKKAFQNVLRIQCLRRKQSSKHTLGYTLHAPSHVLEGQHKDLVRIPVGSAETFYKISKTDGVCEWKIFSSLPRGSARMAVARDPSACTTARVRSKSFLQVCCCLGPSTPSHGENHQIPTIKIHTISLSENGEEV
How it was run: as §1

[4] = [3H]-prazosin radioligand, cloned receptor in LTK cell membranes
[5] = [3H]-prazosin radioligand, rat submaxillary gland membranes

Compound: COc1cccc2c1[C@@H]1CN(CCCCn3c(=O)[nH]c4c(sc5nccc(OC)c54)c3=O)C[C@@H]1CO2 [Example 36, 3-[4-((3aR,9bR)-cis-9-Methoxy-1,2,3,3a,4,9b-hexahydro-[1]-benzopyrano[3,4-c]pyrrol-2-yl)butyl]-9-methoxy-pyrido[3',2':4,5]thieno[3,2-d]pyrimidine-2,4(1H,3H)-dione hydrochloride]
Ki [1, 4]: 0.36 nM | Ki [2, 5]: 0.539 nM | Ki [3, 4]: 0.124 nM

Compound: COc1ccc2sc3c(=O)n(CCCCN4C[C@@H]5COc6cccc(OC)c6[C@@H]5C4)c(=O)[nH]c3c2n1 [Example 30, 3-[4-((3aR,9bR)-cis-9-Methoxy-1,2,3,3a,4,9b-hexahydro-[1]-benzopyrano[3,4-c]pyrrol-2-yl)butyl]-8-methoxy-pyrido[2',3':4,5]thieno[3,2-d]pyrimidine-2,4(1H,3H)-dione hydrochloride]
Ki [1, 4]: 0.222 nM | Ki [2, 5]: 0.264 nM | Ki [3, 4]: 0.066 nM

Ki [1, 4]: 0.063 nM | Ki [2, 5]: 0.114 nM | Ki [3, 4]: 0.037 nM
Compound: COc1cnc2sc3c(=O)n(CCCCN4CC5COc6cccc(OC)c6[C@@H]5C4)c(=O)[nH]c3c2n1.Cl (stereo in doubt) [Example 43, 3-[4-((3aS,9bR)-trans-9-Methoxy-1,2,3,3a,4,9b-hexahydro-[1]-benzopyrano[3,4-c]pyrrol-2-yl)butyl]-8-methoxy-pyrazino[2',3':4,5]thieno[3,2-d]pyrimidine-2,4(1H,3H)-dione hydrochloride]

Compound: COc1cccc2c1[C@@H]1CN(CCCCn3c(=O)[nH]c4c(sc5nc(C)ccc54)c3=O)C[C@@H]1CO2 [Example 35, 3-[4-((3aR,9bR)-cis-9-Methoxy-1,2,3,3a,4,9b-hexahydro-[1]-benzopyrano[3,4-c]pyrrol-2-yl)butyl]-7-methyl-pyrido[3',2':4,5]thieno[3,2-d]pyrimidine-2,4(1H,3H)-dione hydrochloride]
Ki [1, 4]: 0.436 nM | Ki [2, 5]: 0.312 nM | Ki [3, 4]: 0.057 nM

Ki [1, 4]: 0.701 nM | Ki [2, 5]: 0.811 nM | Ki [3, 4]: 0.082 nM
Compound: 3-[4-((3aR,9bR)-cis-9-Methoxy-1,2,3,3a,4,9b-hexahydro-[1]-benzopyrano[3,4-c]pyrrol-2-yl]butyl]-7-methoxy-pyrido[3',2':4,5]thieno[3,2-d]pyrimidine-2,4(1H,3H)-dione hydrochloride [Example 33]

Compound: COc1cccc2c1[C@@H]1CCN(CCCCn3c(=O)[nH]c4c(sc5cccnc54)c3=O)C[C@H]1CO2 [Example 95, 3-[4-((4aS,10bR)-trans-10-Methoxy-1,3,4,4a,5,10b-hexahydro-2H-[1]-benzopyrano[3,4-c]pyrido-3-yl)butyl]-pyrido[2',3':4,5]thieno[3,2-d]pyrimidine-2.4(1H,3H)-dione dihydrochloride]
Ki [1, 4]: 23 nM | Ki [2, 5]: 8.83 nM | Ki [3, 4]: 1.8 nM

Compound: COc1cccc2c1[C@@H]1CN(CCCCn3c(=O)[nH]c4c(sc5ccc(OC(C)C)nc54)c3=O)C[C@H]1CO2 [Example 51, 3-[4-((3aS,9bR)-trans-9-Methoxy-1,2,3,3a,4,9b-hexahydro-[1]-benzopyrano[3,4-c]pyrrol-2-yl)butyl]-8-isopropoxy-pyrido[2',3':4,5]thieno[3,2-d]pyrimidine-2,4(1H,3H)-dione hydrochloride]
Ki [1, 4]: 0.371 nM | Ki [2, 5]: 1.19 nM | Ki [3, 4]: 0.064 nM

Compound: COc1cccc2c1[C@@H]1CN(CCCCn3c(=O)[nH]c4c(sc5ccc(Cl)nc54)c3=O)C[C@@H]1CO2 [Example 37, 3-[4-((3aR,9bR)-cis-9-Methoxy-1,2,3,3a,4,9b-hexahydro-[1]-benzopyrano[3,4-c]pyrrol-2-yl)butyl]-8-chloro-pyrido[2',3':4,5]thieno[3,2-d]pyrimidine-2,4(1H,3H)-dione hydrochloride]
Ki [1, 4]: 0.195 nM | Ki [2, 5]: 0.264 nM | Ki [3, 4]: 0.069 nM

Compound: COc1cccc2c1[C@@H]1CN(CCCCn3c(=O)[nH]c4c(sc5c(Cl)nccc54)c3=O)C[C@H]1CO2 [Example 54, 3-[4-((3aS,9bR)-trans-9-Methoxy-1,2,3,3a,4,9b-hexahydro-[1]-benzopyrano[3,4-c]pyrrol-2-yl)butyl]-6-chloro-pyrido[4',3':4,5]thieno[3,2-d]pyrimidine-2,4(1H,3H)-dione]
Ki [1, 4]: 0.173 nM | Ki [2, 5]: 0.077 nM | Ki [3, 4]: 0.187 nM

Compound: COc1ccc2sc3c(=O)n(CCCCN4C[C@H]5COc6cccc(OC)c6[C@@H]5C4)c(=O)[nH]c3c2n1 [Example 26, 3-[4-((3aS,9bR)-trans-9-Methoxy-1,2,3,3a,4,9b-hexahydro-[1]-benzopyrano[3,4-c]pyrrol-2-yl)butyl]-8-methoxy-pyrido[2',3':4,5]thieno[3,2-d]pyrimidine-2,4(1H,3H)-dione hydrochloride]
Ki [1, 4]: 0.017 nM | Ki [2, 5]: 0.09 nM | Ki [3, 4]: 0.022 nM

Compound: COc1cccc2c1[C@@H]1CN(CCCn3c(=O)[nH]c4c(sc5ccccc54)c3=O)C[C@@H]1CO2.Cl (racemic) [Example 66, 3-[3-((±)-cis-9-Methoxy-1,2,3,3a,4,9b-hexahydro-[1]-benzopyrano[3,4-c]pyrrol-2-yl)propyl]-[1]benzthieno[3,2-d]pyrimidine-2,4(1H,3H)-dione hydrochloride]
Ki [1]: 87.7 nM | Ki [2]: 214 nM | Ki [3]: 24.8 nM

Compound: COc1cccc2c1[C@@H]1CN(CCCCn3c(=O)[nH]c4c(sc5cnccc54)c3=O)C[C@H]1CO2 [Example 42, 3-[4-((3aS,9bR)-trans-9-Methoxy-1,2,3,3a,4,9b-hexahydro-[1]-benzopyrano[3,4-c]pyrrol-2-yl)butyl]-pyrido[4',3':4,5]thieno[3,2-d]pyrimidine-2,4(1H,3H)-dione dihydrochloride]
Ki [1, 4]: 0.066 nM | Ki [2, 5]: 0.073 nM | Ki [3, 4]: 0.028 nM

Compound: COc1cccc2c1[C@@H]1CN(CCCCn3c(=O)[nH]c4c(sc5nc(-c6ccccc6)cnc54)c3=O)C[C@@H]1CO2 [Example 40, 3-[4-((3aR,9bR)-cis-9-Methoxy-1,2,3,3a,4,9b-hexahydro-[1]-benzopyrano[3,4-c]pyrrol-2-yl)butyl]-7-phenyl-pyrazino[2',3':4,5]thieno[3,2-d]pyrimidine-2,4(1H,3H)-dione hydrochloride]
Ki [1, 4]: 7.12 nM | Ki [2, 5]: 22.8 nM | Ki [3, 4]: 3.02 nM

Compound: Cl.O=c1[nH]c2c(sc3ccccc32)c(=O)n1CCN1C[C@@H]2COc3ccccc3[C@@H]2C1 (racemic) [Example 69, 3-[2-((±)-cis-1,2,3,3a,4,9b-hexahydro-[1]-benzopyrano[3,4-c]pyrrol-2-yl)ethyl]-[1]benzthieno[3,2-d]pyrimidine-2,4(1H,3H)-dione hydrochloride]
Ki [1]: 1.63 nM | Ki [2]: 0.665 nM | Ki [3]: 0.344 nM

Compound: COc1cccc2c1[C@@H]1CN(CCCCn3c(=O)[nH]c4c(sc5cccnc54)c3=O)C[C@@H]1CO2 [Example 1, 3-[4-((3aR,9bR)-cis-9-Methoxy-1,2,3,3a,4,9b-hexahydro-[1]-benzopyrano[3,4-c]pyrrol-2-yl)butyl]-pyrido[2',3':4,5]thieno[3,2-d]pyrimidine-2,4(1H,3H)-dione hydrochloride]
Ki [1, 4]: 0.223 nM | Ki [2, 5]: 0.045 nM | Ki [3, 4]: 0.024 nM

Compound: COc1cccc2c1[C@@H]1CN(CCCCn3c(=O)[nH]c4c(sc5c(OC)ccnc54)c3=O)C[C@@H]1CO2 [Example 18, 3-[4-((3aR,9bR)-cis-9-Methoxy-1,2,3,3a,4,9b-hexahydro[1]-benzopyrano[3,4-c]pyrrol-2-yl)butyl]-6-methoxy-pyrido[2',3':4,5]thieno[3,2-d]pyrimidine-2,4(1H,3H)-dione dihydrochloride]
Ki [1, 4]: 0.79 nM | Ki [2, 5]: 0.284 nM | Ki [3, 4]: 0.069 nM
